In series [1] the test system is bovine brain tubulin. Kind of series: Inhibition of tubulin polymerization. In kind it is biochemical. Particulars: tubulin at 10 μM; read-out: Tubulin assembly IC50 ± S.D. The protocol: To evaluate the effect of the compounds on tubulin assembly in vitro[41], varying concentrations of compounds were preincubated with 10 μM bovine brain tubulin in 0.8 M monosodium glutamate (pH adjusted to 6.6 with HCl in a 2.0 M stock solution) at 30 °C and then cooled to 0 °C. After addition of 0.4 mM GTP, the mixtures were transferred to 0 °C cuvettes in a recording spectrophotometer and warmed to 30 °C. Tubulin assembly was followed turbidimetrically at 350 nm. […] The capacity of the test compounds to inhibit colchicine binding to tubulin was measured as described, except that the reaction mixtures contained 1 μM tubulin, 5 μM [^3H]colchicine and 1 or 5 μM test compound.

For series [2], the system named is SEM cells. In words: Antiproliferative MTT assay, SEM. It counts as cell-based, human. The following applies: Homo sapiens, 72 h, mean ± SE. Here is the method: (§1) Human T-cell leukemia (Jurkat) and human B-cell leukemia (SEM and RS4;11) cells were grown in RPMI-1640 medium (Gibco, Milano, Italy). Breast adenocarcinoma (MCF-7), human cervix carcinoma (HeLa), human lung adenocarcinoma (A549) and human colon adenocarcinoma (HT-29) cells were grown in DMEM medium (Gibco, Milano, Italy), all supplemented with 115 units/mL penicillin G (Gibco, Milano, Italy), 115 μg/mL streptomycin (Invitrogen, Milano, Italy), and 10% fetal bovine serum (FBS; Invitrogen, Milano, Italy). Stock solutions (10 mM) of the different compounds were obtained by dissolving them in DMSO. Individual wells of a 96-well tissue culture microtiter plate were inoculated with 100 μL of complete medium containing 8 × 10^3 cells. The plates were incubated at 37 °C in a humidified 5% CO2 incubator for 18 h prior to the experiments. After medium removal, 100 μL of fresh medium containing the test compound at different concentrations was added to each well in triplicate and incubated at 37 °C for 72 h. The percentage of DMSO in the medium never exceeded 0.25%. This was also the maximum DMSO concentration in all cell-based assays described below.

In series [3] the test system is HeLa cells. Kind of series: Western blot analysis of cell cycle and apoptosis proteins. It counts as cell-based, human. The protocol:
HeLa cells were incubated in the presence of 4i and, after different times, were collected, centrifuged, and washed two times with ice cold phosphate buffered saline (PBS). The pellet was then resuspended in lysis buffer. After the cells were lysed on ice for 30 min, lysates were centrifuged at 15000× g at 4 °C for 10 min. The protein concentration in the supernatant was determined using the BCA Protein Assay (Pierce, Italy). Equal amounts of protein (10 μg) were resolved using sodium dodecyl sulfate-polyacrylamide gel electrophoresis (SDS-PAGE) (Criterion Precast, BioRad, Italy) and transferred to a PVDF Hybond-P membrane (GE Healthcare). Membranes were blocked with a bovine serum albumin solution (5% in Tween PBS 1X), the membranes being gently rotated overnight at 4 °C. Membranes were then incubated with primary antibodies against caspase-9, PARP, cdc25c, p-H2AX^Ser139, cyclin B, p-cdc2^Tyr15 (all from Cell Signaling) or β-actin (Sigma-Aldrich) for 2 h at room temperature. Membranes were next incubated with peroxidase labeled secondary antibodies for 60 min. All membranes were visualized using ECL Select (GE Healthcare), and images were acquired using an Uvitec-Alliance imaging system (Uvitec, Cambridge, UK). To ensure equal protein loading, each membrane was stripped and reprobed with anti-β-actin antibody.
On the technique in general: Immunoblotting shows a protein as a band on a membrane.

The test system of series [4] is A549. Kind of series: Antiproliferative MTT assay, A549. In kind it is cell-based, human. Particulars: Homo sapiens, A549, 72 h, mean ± SE. Here is the method:
as §1
Background: Formazan colour is commonly taken as a measure of viable cells.

For series [5], the system named is HUVECs. Kind of series: HUVEC scratch wound motility assay. In kind it is cell-based, human. The following applies: 100 nM, 6 h and 24 h. The protocol: (§2) HUVECs were prepared from human umbilical cord veins, as previously described. The adherent cells were maintained in M200 medium supplemented with LSGS (Low Serum Growth Supplement), containing FBS, hydrocortisone, hEGF, bFGF, heparin, gentamycin/amphotericin (Life Technologies, Monza, Italy). Once confluent, the cells were detached by a trypsin–EDTA solution and used in experiments from the first to sixth passages.
The motility assay for HUVECs was based on “scratch” wounding of a confluent monolayer. Briefly, HUVECs (1x10^5) were seeded onto 6-well plates coated with 0.1% collagen type I (BD Biosciences, Italy) in complete medium until a confluent monolayer was formed. The cells were wounded using a pipette tip, and wells were washed with PBS to remove undetached cells. Then, the cells were treated with the test compounds, and, at different times from the scratch, the cells were photographed under a light microscope. At all indicated time points, the wound width was measured in four areas and compared with the initial width.

Series [6] relates to HeLa. In words: Antiproliferative MTT assay, HeLa. In kind it is cell-based, human. Particulars: Homo sapiens, HeLa, 72 h, mean ± SE. The protocol:
as §1

The subject of series [7] is HUVECs. Kind of series: Cytotoxicity in HUVECs. In kind it is cell-based. The following applies: Homo sapiens, HUVEC; primary HUVECs. Here is the method: as §2
The subject of series [8] is MCF-7. In words: Antiproliferative MTT assay, MCF-7. It counts as cell-based, human. Particulars: Homo sapiens, MCF7, 72 h, mean ± SE. The protocol:
as §1

In series [9] the test system is B16 murine melanoma cells. In words: MTT assay on B16 murine melanoma cells. It counts as cell-based. Particulars: Mus musculus.
Series [10] deals with Jurkat cells. Kind of series: ROS production (H2-DCFDA), Jurkat. It counts as cell-based, human. Particulars: 100 nM, untreated about 4%.
Series [11] has as its system Jurkat cells. Kind of series: Annexin-V/PI apoptosis assay, Jurkat. It counts as cell-based, human. Particulars: 60 nM, 24 h. The protocol: Cell death was determined by flow cytometry of cells double stained with annexin V/FITC and PI. The Coulter Cytomics FC500 (Beckman Coulter) was used to measure the surface exposure of PS on apoptotic cells according to the manufacturer’s instructions (Annexin-V Fluos, Roche Diagnostics).

For series [12], the system named is BL6-B16 murine melanoma cells. In words: Mouse allograft tumor model (BL6-B16 melanoma). In kind it is in vivo. The text has this: Animal experiments were approved by our local animal ethics committee (OPBA, Organismo Preposto al Benessere degli Animali, Università degli Studi di Brescia, Italy) and were executed in accordance with national guidelines and regulations. Procedures involving animals and their care conformed with institutional guidelines that comply with national and international laws and policies (EEC Council Directive 86/609, OJ L 358, 12 December 1987) and with “ARRIVE” guidelines (Animals in Research Reporting In Vivo Experiments). Six week old C57BL/6 mice (Charles River, Calco) were injected subcutaneously into the dorsolateral flank with 2.5x10^5 BL6-B16 murine melanoma cells in 200 μL of PBS. When tumors were palpable, animals were treated intraperitoneally every other day with different doses of test compounds dissolved in 50 μL of DMSO. Tumors were measured in two dimensions, and tumor volume was calculated according to the formula V = (D × d^2)/2, where D and d are the major and minor perpendicular tumor diameters, respectively.

Some results are limits rather than exact numbers.

Consider `CCOc1ccc(-c2oc(C)nc2-c2cc(OC)c(OC)c(OC)c2)cc1` [Compound 4i, 4-(3,4,5-Trimethoxyphenyl)-5-(4-ethoxyphenyl)-2-methyloxazole], for which the IC50 in [1] was 560 ± 100 nM; in series [2] it was 6.1 ± 2.3 nM; in series [4], 0.5 ± 0.1 nM; in [6], 0.9 ± 0.3 nM; in series [7], above 100000 nM; in [8] it was 4.5 ± 1.8 nM. Further, the IC50 in [9] came to 15.6 ± 1.9 nM. Moreover, in series [3] (100 nM), the “expression of Mcl-1” value is listed as “only slightly decreased”. The “total cdc25c expression” value in series [3] (100 nM, 24 and 48 h) is “reduced”. In addition, in [3] (24 and 48 h), the XIAP expression result is “significantly reduced”. The “cyclin B1 expression” value in series [3] (24 and 48 h, concentration dependent) is given as “marked increase”. Further, in [3] (50 or 100 nM, 24 and 48 h), the PARP cleavage entry is given as “appearance of its cleavage fragments”. For the same compound, the “phosphorylation of γH2A.X (Ser139)” value in series [3] (48 h) is recorded as “great increase”. Further, the “expression of phosphorylated cdc2” value in [3] (most noticeable at 24 h, 100 nM) is recorded as “decreased”. In [5], the “HUVEC cell migration (wound healing)” value is recorded as “significantly reduced”. Further, in series [10], the “DCF positive cells (ROS production)” value is given as 25–30%. In addition, the “apoptotic cells (annexin-V)” value in series [11] was 40%. The “reduction in tumor mass” value was 34.9% in [12] (3.0 mg/kg i.p. on days 9, 11 and 14); 52.5% in series [12] (7.5 mg/kg i.p. on days 9, 11 and 14). For the same compound, the “signs of toxicity in mice” value in [12] (highest dose (7.5 mg/kg i.p.)) was “did not show any sign of toxicity”. Moreover, the animal body weight result in [12] (highest dose (7.5 mg/kg i.p.), data not shown) is reported as “did not cause a decrease in animal body weight”.

One may read the IC50 as the concentration that inhibits the measured activity by half.

The values above are taken from publication PMC5390315 (Scientific Reports, 2017).
